Measurements from patent US8242086B2, “Methods and compositions for treating disorders caused by a deficiency in a gene product of a CLN gene” (Duke University, priority 2008, dated 2012).

System: CLN3 knockdown NT2 cells
Assay: Cell apoptosis rate in CLN3 knockdown NT2 cells, propidium iodide
Assay type: cell-based, human
Details: GalCer 50 ng/ml, 3 days after transfection
Method: Cell Culture and Cell Treatment. NT2 neuronal precursor cells (ATCC cat no. CRL 1973) were grown in DMEM supplemented with 1% sodium pyruvate, L-glutamine and antibiotics and incubated in 37 C and 5% CO2 for 3 days.
siRNA knockdown of CLN3 in NT2 cells. HS1 siRNA ([…]) for CLN3 knockdown was designed using BLOCK-iT RNA™ Designer (Invitrogen). […] siRNA and scrambled universal negative control siRNA oligonucleotides were transfected into wild type NT2 cells using Lipofectamine RNAiMax™ according to manufacturer's protocol. In brief, […] HS1 RNAi duplex or scrambled siRNA universal negative control were diluted in 50 μl DMEM medium without serum. Lipofectamine™ RNAiMAX was mixed gently before use, then 1 μl was diluted in 50 μl DMEM medium. The diluted RNAi duplexes were combined with the diluted Lipofectamine RNAiMAX and incubated for 10 minutes at room temperature. […]
Determination of cell apoptosis rate in CLN3 knockdown NT2 cells. 10^6 cells transfected with CLN3 siRNA or scrambled siRNA, either treated with 50 ng/ml of GalCer (Avanti Polar Lipids, inc.) or solvent, are suspended in 100 μl PBS, incubated with 100 μl/0.5 mg/ml PI, washed, placed on slides and viewed using a fluorescence microscope. […] Cells in three fields of vision were counted. Percentage of red staining-apoptotic cells/total cells was determined.

**Q.** Which “cell death (apoptosis) of CLN3-deficient NT2 cells” value does the source give for galactosylceramide [GalCer] here?
**A.** significantly reduces cell death
